Laboratory results: patent US20260055102A1 (Redx Pharma Limited, priority 2022, published 2026)

Experiments:
[1] = biological target: Recombinant human DDR2 (aa427-855 containing a GST tag) (Homo sapiens (Human), UniProt Q16832); assay: LanthaScreen Eu Kinase Binding Assay DDR2; details: Kinase Tracer 178 10 nM, at least two independent replicates; for IC50: read-out: DDR2 pIC50 (converted)
Method in brief: (§1)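 DDR1 (2.5 nM) or DDR2 (1.75 nM) was preincubated with compound 30 min at RT in 50 mM HEPES pH 7.3, 10 mM MgCl2, 1 mM EGTA, 0.01% Tween. Eu-anti-GST and Tracer 178 were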

[2] = biological target: Recombinant human DDR1 (aa440-876 containing a GST tag) (Homo sapiens (Human), UniProt Q08345); assay: LanthaScreen Eu Kinase Binding Assay DDR1; details: Kinase Tracer 178 5 nM, at least two independent replicates, read-out: DDR1 pIC50 (converted)
Chain of Recombinant human DDR1 (aa440-876 containing a GST tag) (Q08345 other isoform, or with tags, fused parts or gaps): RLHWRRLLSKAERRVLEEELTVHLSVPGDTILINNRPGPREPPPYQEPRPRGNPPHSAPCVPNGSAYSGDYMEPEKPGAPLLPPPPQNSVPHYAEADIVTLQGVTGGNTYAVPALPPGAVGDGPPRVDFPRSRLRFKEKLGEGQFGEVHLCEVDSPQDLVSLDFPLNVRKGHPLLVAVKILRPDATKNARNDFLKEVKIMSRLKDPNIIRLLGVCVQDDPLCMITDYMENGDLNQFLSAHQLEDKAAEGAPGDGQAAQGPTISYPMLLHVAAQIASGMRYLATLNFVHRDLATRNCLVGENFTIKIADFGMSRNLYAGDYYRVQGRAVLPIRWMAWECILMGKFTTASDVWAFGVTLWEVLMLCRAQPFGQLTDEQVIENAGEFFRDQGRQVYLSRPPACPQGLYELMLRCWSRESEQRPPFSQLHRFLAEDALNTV
Method in brief: as §1

Chain of Recombinant human DDR2 (aa427-855 containing a GST tag) (Q16832 427-855): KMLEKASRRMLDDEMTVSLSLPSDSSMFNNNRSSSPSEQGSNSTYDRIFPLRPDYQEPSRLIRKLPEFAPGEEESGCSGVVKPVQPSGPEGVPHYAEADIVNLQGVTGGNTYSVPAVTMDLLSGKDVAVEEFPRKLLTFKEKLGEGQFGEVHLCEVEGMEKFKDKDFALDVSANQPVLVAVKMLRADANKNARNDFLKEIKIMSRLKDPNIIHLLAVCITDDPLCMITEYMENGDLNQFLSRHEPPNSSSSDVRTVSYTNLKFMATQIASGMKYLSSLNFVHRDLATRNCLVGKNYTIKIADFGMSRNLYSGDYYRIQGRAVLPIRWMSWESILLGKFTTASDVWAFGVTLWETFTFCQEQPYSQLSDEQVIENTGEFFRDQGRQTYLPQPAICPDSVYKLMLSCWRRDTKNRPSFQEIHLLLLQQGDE

Row | DDR2 pIC50 [1] | IC50 [2] | IC50 [1] | SMILES
1 | D (pIC50≤6) | 10 to 100 nM |  | Cc1cc(-c2cncc3c2cnn3C)cnc1-n1c(=O)n(CC(=O)NCC(F)(F)F)c2cccc(C)c21 [Example 110]
2 | D (pIC50≤6) | 100 to 1000 nM |  | Cc1cc(-c2cncc3c2cnn3C)cnc1-n1c(=O)n(CC(=O)N[C@H](C)C(F)(F)F)c2cccc(C)c21 [Example 111]
3 |  | 10 to 100 nM | 100 to 1000 nM | Cc1nc(-c2cncc3c2cnn3C)ccc1-n1c(=O)n(CC(=O)N[C@H](C)C(F)(F)F)c2cccc(C)c21 [Example 112]
4 |  | 10 to 100 nM | 100 to 1000 nM | Cc1nc(-c2cncc3c2cnn3C)ccc1-n1c(=O)n(CC(=O)N[C@@H](C)C(F)(F)F)c2cccc(C)c21 [Example 113]
5 |  | 10 to 100 nM | 10 to 100 nM | Cc1nc(-c2cncc3c2cnn3C)cnc1-n1c(=O)n(CC(=O)N[C@@H](C)C(F)(F)F)c2cccc(C)c21 [Example 115]
